Data published in patent US20240016781A1, “TREATMENT OF KRAS MUTANT CANCERS” (MEI Pharma, Inc., priority 2020, published 2024).

What was measured:
MYC protein in AML cells = conditions: 3 hr; cited from earlier work
[1] = tested on: MYC (pSer62 and total) in MIA PACA-2 (G12C) cells; assay: Western blot of MYC and pSer62-MYC in MIA PACA-2 cells; format: cell-based; conditions: 4 μM Voruciclib
Method: Voruciclib is an oral inhibitor of CDKs 9, 4, 6, and 1 currently being tested in Phase 1B clinical trials for B-cell malignancies and acute myeloid leukemia. Voruciclib inhibition of CDK9 leads to decreased expression of transcriptional targets of RNA Pol II, such as Mcl1 and MYC. To test whether Voruciclib could be effective in cancers driven by dysregulated KRAS-MYC signaling, ˜20 cancer cell lines with KRAS mutations (G12A, G12C, G12D, G12S, G12V, G13C, G13D, Q61H) were treated in preclinical studies with Voruciclib. MTS and Cell Titer Glo assays were used to monitor growth in vitro. […] To investigate MYC protein stability, MIA PACA-2 (G12C) cells were treated with 4 μM Voruciclib for 5-240 min, followed by SDS-PAGE and Western Blotting analysis with α-MYC and α-pSer62-MYC antibodies. […] A 60% decrease in pSer62 was observed after 5 min that reached 80% by 60 min. […] The ability of Voruciclib to inhibit tumor growth in vivo was also tested in murine xenograft models. KRAS mutant human cancer cells HCT-116 (CRC, KRAS G13D), SW-480 (CRC, KRAS G12V), and H-460 (NSCLC, KRAS Q61H) were injected subcutaneously into SCID mice. Once tumors reached 5-10 mm in diameter, Voruciclib or vehicle were administered orally at 50, 100, or 200 mg/kg OD for 11-14 days. Tumors were measured every 2-3 days, and growth inhibition relative to control was calculated.
FIG. 32—Voruciclib causes rapid inhibition MYC pSer62 phosphorylation and reduces MYC protein levels. Immunoblot analyses of c-MYC, phospho-c-MYC (Ser62), and actin in MIA Paca-2 KRAS G12C mutant PDAC cells. (FIG. 32A) Cells were treated with vehicle control, voruciclib (VOR, 4 μM), or the AZD4573 (AZD, a CDK9 inhibitor, 400 nM) for the indicated times. (FIG. 32B) Cells were treated with various concentrations of voruciclib or AZD4573 for the indicated time. Relative densitometry values are indicated.

MIA Paca-2 cells = assay: Voruciclib-sensitive phosphoproteome (TMT, LC-MS/MS); format: cell-based; conditions: voruciclib 4 μM over time
Method: Cells were treated with voruciclib (4 μM) over time. (FIG. 31A) Summary of peptide quantification after TMT labelling and analysis by LC-MS/MS. (FIG. 31B) Volcano plots of phosphosites (log 2 fold change vs −log 10 p-value).
To define the CDK9-dependent phosphoproteome, cells are treated for a short time period with VOR followed by harvesting of the cells, IMAC enrichment, 16-plex isobaric tagging, and analysis by LC/MS/MS. A time course or different doses or drug combinations for the conditions can be performed. This experiment provides insight into novel CDK9 substrates and inroads into possible therapeutic areas for CDK9 inhibition by VOR.

[2] = tested on: Relapsed/Refractory B-cell malignancies; Relapsed/Refractory AML; assay: Phase 1 study in R/R B-cell malignancies and AML; format: in vivo, human
Method: Study population: Relapsed/Refractory B-cell malignancies; Relapsed/Refractory AML; Dose escalation with standard 3+3 design.
Endpoints: Safety and tolerability, Pharmacokinetics, Biologic correlative studies (BH3 profiling, MCL-1 expression, molecular mutations analysis), Response rates.
Voruciclib single agent dose escalation: 50 mg>100 mg>150 mg>200 mg.
Differentiation syndrome seen in 5 pts (50%) (Increased WBC without increased in blasts, bone pain, pulmonary symptoms; Response to corticosteroids).

NCI-H358 cells = assay: 2D culture dose response; format: cell-based; conditions: Homo sapiens

IC50 (NCI-H358 cells): 600 nM
Compound: CN1CC[C@@H](c2c(O)cc(O)c3c(=O)cc(-c4ccc(C(F)(F)F)cc4Cl)oc23)[C@@H]1CO [Voruciclib, (+)-trans-2-(2-Chloro-4-trifluoromethylphenyl)-5,7-dihydroxy-8-(2-hydroxymethyl-1-methylpyrrolidin-3-yl)-chromen-4-one]
MYC protein (MYC protein in AML cells): decrease in MYC protein
decrease in total MYC protein ([1]; 5 or 15 min): no decrease in total MYC protein
reduction in total MYC ([1]; 60 min): 10%
reduction in total MYC ([1]; 240 min): 50%
decrease in pSer62 (MYC) ([1]; after 5 min): 60%
decrease in pSer62 (MYC) ([1]; by 60 min): 80%
phosphoproteome change (MIA Paca-2 cells): rapid downregulation of phosphoproteins controlling transcription of MYC
GI toxicity or neutropenia ([2]; 24 pts in 3 dose levels, 10 AML and 14 B-cell malignancies): No GI toxicity or neutropenia at doses studied
patients with differentiation syndrome ([2]; AML): 50%
